Results on eight compounds are retold here after ChEMBL document CHEMBL3991601, “The target landscape of clinical kinase drugs” (Science, 2017).

A word on the Kd: it is the constant that tells how readily two partners part at equilibrium.

The target of assay [1] is T1, Peroxisomal acyl-coenzyme A oxidase 3 (Homo sapiens, UniProt O15254).
T1 sequence (O15254 whole entry): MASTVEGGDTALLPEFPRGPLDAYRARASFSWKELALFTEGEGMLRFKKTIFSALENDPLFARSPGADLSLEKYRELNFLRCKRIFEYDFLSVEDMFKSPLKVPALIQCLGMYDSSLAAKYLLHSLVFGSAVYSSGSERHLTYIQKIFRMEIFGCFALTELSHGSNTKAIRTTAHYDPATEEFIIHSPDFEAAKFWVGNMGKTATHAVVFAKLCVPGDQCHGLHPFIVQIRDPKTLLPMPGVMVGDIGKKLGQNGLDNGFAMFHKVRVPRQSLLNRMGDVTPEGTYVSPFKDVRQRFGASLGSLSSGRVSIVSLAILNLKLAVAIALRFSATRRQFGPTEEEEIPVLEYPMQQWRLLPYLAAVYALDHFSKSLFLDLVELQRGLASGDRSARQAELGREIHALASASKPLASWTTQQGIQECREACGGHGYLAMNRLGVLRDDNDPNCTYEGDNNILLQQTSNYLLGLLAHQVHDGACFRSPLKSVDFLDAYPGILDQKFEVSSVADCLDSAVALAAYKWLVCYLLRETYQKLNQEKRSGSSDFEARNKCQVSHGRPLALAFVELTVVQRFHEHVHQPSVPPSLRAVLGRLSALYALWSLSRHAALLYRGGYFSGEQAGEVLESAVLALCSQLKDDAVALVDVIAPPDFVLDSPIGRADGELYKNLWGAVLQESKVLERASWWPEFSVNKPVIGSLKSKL

The target of the next assay is Actin-related protein 2 (Homo sapiens, UniProt P61160).
Assay [2] concerns the target BMP-2-inducible protein kinase (Homo sapiens, UniProt Q9NSY1).
In assay [3] the target is Calcium/calmodulin-dependent protein kinase type II subunit delta (Homo sapiens, UniProt Q13557).
Sequence of Calcium/calmodulin-dependent protein kinase type II subunit delta (Q13557 whole entry): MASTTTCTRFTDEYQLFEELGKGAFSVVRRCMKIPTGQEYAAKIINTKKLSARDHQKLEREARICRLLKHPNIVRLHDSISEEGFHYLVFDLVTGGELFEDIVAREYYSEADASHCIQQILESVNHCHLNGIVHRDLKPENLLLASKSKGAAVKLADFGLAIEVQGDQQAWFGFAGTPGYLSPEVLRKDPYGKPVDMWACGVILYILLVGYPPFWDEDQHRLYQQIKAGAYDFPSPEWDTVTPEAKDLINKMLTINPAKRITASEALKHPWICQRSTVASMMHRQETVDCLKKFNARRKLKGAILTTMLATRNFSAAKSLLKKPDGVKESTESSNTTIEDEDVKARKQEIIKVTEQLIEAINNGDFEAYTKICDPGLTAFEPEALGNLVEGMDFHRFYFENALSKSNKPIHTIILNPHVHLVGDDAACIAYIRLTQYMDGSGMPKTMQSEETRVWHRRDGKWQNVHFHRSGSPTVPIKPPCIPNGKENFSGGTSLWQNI
In assay [4] the target is T2, Calcium/calmodulin-dependent protein kinase type IV (Homo sapiens, UniProt Q16566).
T2 sequence (Q16566 whole entry): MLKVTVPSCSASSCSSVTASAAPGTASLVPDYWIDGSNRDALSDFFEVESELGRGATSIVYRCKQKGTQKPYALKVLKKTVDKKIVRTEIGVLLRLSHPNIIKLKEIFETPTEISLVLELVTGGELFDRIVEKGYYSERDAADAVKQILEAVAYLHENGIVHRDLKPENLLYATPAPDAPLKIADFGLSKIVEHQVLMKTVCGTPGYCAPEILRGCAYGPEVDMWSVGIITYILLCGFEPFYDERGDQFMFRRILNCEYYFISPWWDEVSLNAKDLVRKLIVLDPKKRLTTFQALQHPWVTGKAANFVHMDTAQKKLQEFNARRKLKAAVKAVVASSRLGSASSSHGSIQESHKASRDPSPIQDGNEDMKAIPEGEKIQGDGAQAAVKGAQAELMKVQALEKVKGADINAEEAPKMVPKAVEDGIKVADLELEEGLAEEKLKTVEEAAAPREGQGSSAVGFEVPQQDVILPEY

The target of assay [5] is Cyclin-dependent kinase 6 (Homo sapiens, UniProt Q00534).
Assay [6] concerns the target Casein kinase I isoform gamma-1 (Homo sapiens, UniProt Q9HCP0).
The target of assay [7] is T3, Receptor-type tyrosine-protein kinase FLT3 (Homo sapiens, UniProt P36888).
T3 sequence (P36888 whole entry): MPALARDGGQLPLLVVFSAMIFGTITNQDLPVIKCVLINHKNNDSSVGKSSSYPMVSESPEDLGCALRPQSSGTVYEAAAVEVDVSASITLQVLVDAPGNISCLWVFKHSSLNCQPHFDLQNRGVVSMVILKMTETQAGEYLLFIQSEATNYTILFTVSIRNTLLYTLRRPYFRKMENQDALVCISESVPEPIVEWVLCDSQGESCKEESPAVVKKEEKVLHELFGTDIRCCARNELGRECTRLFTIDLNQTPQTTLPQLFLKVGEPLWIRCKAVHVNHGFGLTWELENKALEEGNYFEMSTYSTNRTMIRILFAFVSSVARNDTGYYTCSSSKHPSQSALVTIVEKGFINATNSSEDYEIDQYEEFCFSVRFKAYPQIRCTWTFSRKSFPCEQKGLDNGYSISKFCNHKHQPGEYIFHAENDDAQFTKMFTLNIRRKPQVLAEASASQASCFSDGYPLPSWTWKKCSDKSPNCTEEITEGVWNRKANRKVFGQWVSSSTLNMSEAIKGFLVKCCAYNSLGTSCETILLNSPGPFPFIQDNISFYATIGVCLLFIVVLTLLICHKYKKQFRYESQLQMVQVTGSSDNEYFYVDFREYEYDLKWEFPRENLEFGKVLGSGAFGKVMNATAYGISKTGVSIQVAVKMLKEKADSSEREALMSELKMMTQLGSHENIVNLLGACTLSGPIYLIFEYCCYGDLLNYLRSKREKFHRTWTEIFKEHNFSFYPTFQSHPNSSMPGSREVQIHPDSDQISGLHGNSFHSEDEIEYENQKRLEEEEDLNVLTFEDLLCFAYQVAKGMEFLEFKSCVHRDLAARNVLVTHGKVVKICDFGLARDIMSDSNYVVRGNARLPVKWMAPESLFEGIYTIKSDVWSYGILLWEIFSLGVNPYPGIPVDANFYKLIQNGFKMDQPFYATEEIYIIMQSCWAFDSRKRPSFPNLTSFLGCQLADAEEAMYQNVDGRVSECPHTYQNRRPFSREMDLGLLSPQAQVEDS

The next assay concerns the target Myosin-14 (Homo sapiens, UniProt Q7Z406).
In assay [8] the target is Protein kinase C alpha type (Homo sapiens, UniProt P17252).
Assay [9] deals with Ras-related protein Rab-6A (Homo sapiens, UniProt P20340).
Sequence of Ras-related protein Rab-6A (P20340 whole entry): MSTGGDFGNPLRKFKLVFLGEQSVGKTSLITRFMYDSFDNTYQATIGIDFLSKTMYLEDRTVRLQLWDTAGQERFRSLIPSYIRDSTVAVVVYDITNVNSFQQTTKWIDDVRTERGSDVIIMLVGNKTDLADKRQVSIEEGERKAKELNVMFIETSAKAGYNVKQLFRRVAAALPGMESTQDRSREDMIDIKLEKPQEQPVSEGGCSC
In assay [10] the target is GTP-binding nuclear protein Ran (Homo sapiens, UniProt P62826).
Assay [11] concerns the target Receptor-interacting serine/threonine-protein kinase 2 (Homo sapiens, UniProt O43353).

Active and inactive are the calls of the source. For most assays here, no stated cut-off is given here; in the data, actives have a measured Kd and inactives only a lower limit.

Sequence of Receptor-interacting serine/threonine-protein kinase 2 (O43353 whole entry): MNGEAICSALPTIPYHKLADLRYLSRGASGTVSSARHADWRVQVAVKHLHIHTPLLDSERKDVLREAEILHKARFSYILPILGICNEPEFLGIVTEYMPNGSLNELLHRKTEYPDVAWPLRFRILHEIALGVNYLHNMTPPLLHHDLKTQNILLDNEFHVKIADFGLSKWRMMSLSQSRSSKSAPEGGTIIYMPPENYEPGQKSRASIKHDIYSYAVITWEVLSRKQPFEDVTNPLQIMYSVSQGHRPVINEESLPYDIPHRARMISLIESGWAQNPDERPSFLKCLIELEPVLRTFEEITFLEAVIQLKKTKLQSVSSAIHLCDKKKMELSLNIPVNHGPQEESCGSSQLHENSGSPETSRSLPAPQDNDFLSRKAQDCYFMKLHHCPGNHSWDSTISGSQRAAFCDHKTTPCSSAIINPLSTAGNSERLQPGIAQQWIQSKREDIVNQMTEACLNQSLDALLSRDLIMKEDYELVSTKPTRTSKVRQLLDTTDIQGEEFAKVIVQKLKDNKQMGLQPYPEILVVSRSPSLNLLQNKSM
Sequence of BMP-2-inducible protein kinase (Q9NSY1 whole entry): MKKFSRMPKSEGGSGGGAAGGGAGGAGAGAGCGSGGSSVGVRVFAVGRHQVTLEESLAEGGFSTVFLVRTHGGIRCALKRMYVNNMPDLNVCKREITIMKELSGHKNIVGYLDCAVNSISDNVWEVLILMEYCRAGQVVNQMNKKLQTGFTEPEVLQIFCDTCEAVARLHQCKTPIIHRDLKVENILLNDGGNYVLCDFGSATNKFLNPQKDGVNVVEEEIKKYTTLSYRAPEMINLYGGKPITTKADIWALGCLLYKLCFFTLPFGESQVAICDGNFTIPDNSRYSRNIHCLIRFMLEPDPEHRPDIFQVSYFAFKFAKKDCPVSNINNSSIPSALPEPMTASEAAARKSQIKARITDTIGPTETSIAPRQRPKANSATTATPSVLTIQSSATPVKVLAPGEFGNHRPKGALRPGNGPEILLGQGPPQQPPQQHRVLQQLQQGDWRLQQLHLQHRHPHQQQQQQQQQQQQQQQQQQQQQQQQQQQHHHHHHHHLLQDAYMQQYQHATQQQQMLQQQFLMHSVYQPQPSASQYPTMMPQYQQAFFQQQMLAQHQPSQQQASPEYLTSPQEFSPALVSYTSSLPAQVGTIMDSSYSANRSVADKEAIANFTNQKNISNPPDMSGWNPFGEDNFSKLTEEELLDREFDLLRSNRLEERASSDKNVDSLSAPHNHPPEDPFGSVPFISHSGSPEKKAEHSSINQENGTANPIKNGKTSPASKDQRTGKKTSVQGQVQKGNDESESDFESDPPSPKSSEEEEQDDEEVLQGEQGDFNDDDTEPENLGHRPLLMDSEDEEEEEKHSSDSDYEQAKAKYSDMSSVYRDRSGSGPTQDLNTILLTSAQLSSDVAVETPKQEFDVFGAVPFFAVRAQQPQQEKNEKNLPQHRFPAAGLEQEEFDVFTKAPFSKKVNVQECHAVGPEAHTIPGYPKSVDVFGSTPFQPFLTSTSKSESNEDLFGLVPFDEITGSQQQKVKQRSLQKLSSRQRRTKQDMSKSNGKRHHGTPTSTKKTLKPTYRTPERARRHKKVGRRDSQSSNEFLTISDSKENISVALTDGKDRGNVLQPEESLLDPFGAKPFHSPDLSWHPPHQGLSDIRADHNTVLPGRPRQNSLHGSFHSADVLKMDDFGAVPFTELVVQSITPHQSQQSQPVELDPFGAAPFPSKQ
Sequence of Myosin-14 (Q7Z406 whole entry): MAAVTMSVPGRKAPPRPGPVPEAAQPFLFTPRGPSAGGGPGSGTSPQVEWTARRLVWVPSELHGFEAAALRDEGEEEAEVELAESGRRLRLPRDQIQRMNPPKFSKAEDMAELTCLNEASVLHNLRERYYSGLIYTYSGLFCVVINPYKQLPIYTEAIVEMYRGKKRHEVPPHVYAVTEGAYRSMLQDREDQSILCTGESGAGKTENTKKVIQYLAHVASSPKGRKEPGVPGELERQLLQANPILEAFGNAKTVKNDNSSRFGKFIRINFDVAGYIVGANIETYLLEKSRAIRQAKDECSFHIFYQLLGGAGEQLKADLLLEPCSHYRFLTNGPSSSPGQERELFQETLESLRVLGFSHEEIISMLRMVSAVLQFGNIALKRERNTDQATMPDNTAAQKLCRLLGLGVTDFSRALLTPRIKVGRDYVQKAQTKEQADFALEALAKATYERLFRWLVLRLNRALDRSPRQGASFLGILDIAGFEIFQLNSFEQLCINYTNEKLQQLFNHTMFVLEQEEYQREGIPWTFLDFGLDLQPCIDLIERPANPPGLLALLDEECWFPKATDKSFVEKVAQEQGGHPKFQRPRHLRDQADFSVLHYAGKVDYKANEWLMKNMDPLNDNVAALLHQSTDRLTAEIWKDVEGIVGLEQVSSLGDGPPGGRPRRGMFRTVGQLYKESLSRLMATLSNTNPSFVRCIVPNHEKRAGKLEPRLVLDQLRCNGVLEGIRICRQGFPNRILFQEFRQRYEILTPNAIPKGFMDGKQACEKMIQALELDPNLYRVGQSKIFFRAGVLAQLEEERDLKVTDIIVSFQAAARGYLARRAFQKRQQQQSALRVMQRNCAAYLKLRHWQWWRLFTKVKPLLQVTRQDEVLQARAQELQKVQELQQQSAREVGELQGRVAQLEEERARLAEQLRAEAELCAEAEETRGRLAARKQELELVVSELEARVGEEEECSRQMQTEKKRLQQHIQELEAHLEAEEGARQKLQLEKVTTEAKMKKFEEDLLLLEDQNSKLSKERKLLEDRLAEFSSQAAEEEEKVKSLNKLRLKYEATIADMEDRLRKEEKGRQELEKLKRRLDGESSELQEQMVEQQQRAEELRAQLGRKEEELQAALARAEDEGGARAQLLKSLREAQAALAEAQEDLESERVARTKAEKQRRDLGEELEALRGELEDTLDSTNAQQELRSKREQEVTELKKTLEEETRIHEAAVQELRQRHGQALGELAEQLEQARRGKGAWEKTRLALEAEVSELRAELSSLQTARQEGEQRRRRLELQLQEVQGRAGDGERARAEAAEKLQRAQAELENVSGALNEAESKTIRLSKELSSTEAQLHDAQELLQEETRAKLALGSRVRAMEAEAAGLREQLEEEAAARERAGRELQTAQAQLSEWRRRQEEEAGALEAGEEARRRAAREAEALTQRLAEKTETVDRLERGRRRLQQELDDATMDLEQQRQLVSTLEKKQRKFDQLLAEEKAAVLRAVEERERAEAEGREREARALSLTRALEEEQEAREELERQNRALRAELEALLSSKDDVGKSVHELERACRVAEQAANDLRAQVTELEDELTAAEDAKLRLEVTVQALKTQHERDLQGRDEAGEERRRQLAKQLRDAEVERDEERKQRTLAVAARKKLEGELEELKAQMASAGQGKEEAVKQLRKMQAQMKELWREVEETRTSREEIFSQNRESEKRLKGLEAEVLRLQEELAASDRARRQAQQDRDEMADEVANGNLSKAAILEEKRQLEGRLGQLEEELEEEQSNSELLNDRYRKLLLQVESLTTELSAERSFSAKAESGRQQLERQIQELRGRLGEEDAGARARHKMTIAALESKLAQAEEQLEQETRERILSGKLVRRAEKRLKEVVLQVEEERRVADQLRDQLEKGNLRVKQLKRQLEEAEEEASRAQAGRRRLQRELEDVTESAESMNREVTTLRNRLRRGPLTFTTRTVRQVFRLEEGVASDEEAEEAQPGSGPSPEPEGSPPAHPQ

With `CCn1c(=O)c(-c2cc[nH]n2)cc2c(C)nc(N)nc21` [VOXTALISIB], the Kd (in assay [1]; at Actin-related protein 2; in assay [2]; in [3]; in assay [4]; in [5]) was > 30 µM (inactive) each time. Besides, the Kd (in [6]; in assay [7]; on Myosin-14; in assay [8]; in assay [9]; in assay [10]) was > 30 µM (inactive) each time. Also, in assay [11], the Kd was > 30 µM (inactive).
Take `Cn1cc(-c2ccc(F)c(C(F)(F)F)c2)nc1C1CCN(c2ncnc3[nH]ncc23)CC1` [LY-2584702]: the Kd (in assay [1]; on Actin-related protein 2; in [2]; in [3]; in [4]; in [5]) was > 30 µM (inactive) throughout. For the same compound, the Kd (in [6]; in assay [7]; on Myosin-14; in assay [8]; in [9]; in assay [10]) was > 30 µM (inactive) each time. For the same compound, the Kd in assay [11] is > 30 µM (inactive).
As for `Cc1cc2c(F)c(Oc3ncnn4cc(OC[C@@H](C)OC(=O)[C@H](C)N)c(C)c34)ccc2[nH]1` [BRIVANIB ALANINATE], the Kd (in [1]; at Actin-related protein 2; in assay [2]; in assay [3]; in assay [4]; in [5]) was > 30 µM (inactive) each time. In addition, the Kd (in assay [6]; in assay [7]; at Myosin-14; in assay [8]; in [9]; in assay [10]) was > 30 µM (inactive) in each case. Besides, the Kd in assay [11] is > 30 µM (inactive).
`CNC(=O)c1ccc(C)c(-n2c(C)cc(OCc3ccc(F)cc3F)c(Br)c2=O)c1` [PH-797804]: the Kd (in [1]; at Actin-related protein 2; in assay [2]; in assay [3]; in [4]; in [5]) was > 30 µM (inactive) each time. For the same compound, the Kd (in assay [6]; in assay [7]; on Myosin-14; in assay [8]; in [9]; in assay [10]) was > 30 µM (inactive) throughout. For the same compound, in assay [11], the Kd is > 30 µM (inactive).
Consider `COC(=O)N[C@@H](C)CNc1nccc(-c2cn(C(C)C)nc2-c2cc(Cl)cc(NS(C)(=O)=O)c2F)n1` [ENCORAFENIB], for which the Kd (in [1]; at Actin-related protein 2; in assay [2]; in [3]; in assay [4]; in [5]) was > 30 µM (inactive) throughout. For the same compound, the Kd (in assay [6]; in [7]; at Myosin-14; in assay [8]; in assay [9]; in assay [10]) was > 30 µM (inactive) in each case. Further, the equilibrium dissociation constant (Kd) in assay [11] was 0.323 µM (active).
Take `O=C1NC(=O)/C(=C/c2ccc3nccc(-c4ccncc4)c3c2)S1` [GSK-1059615]: the Kd in assay [1] was > 30 µM (inactive); on Actin-related protein 2, > 30 µM (inactive); in [2] it was 0.402 µM (active); in assay [3] it was > 30 µM (inactive); in [4], > 30 µM (inactive); in assay [5] it was > 30 µM (inactive). The Kd is 17.5 µM (active) in assay [6]; > 30 µM (inactive) in [7]; > 30 µM (inactive) on Myosin-14; > 30 µM (inactive) in assay [8]; > 30 µM (inactive) in [9]; > 30 µM (inactive) in assay [10]. In addition, the Kd in assay [11] is > 30 µM (inactive).
Regarding `CC[C@@H]1C(=O)N(C)c2cnc(Nc3ccc(C(=O)N[C@H]4CC[C@H](N5CCN(CC6CC6)CC5)CC4)cc3OC)nc2N1C(C)C` [VOLASERTIB], the Kd (in [1]; on Actin-related protein 2; in [2]; in [3]; in [4]; in assay [5]) was > 30 µM (inactive) throughout. For the same compound, the Kd (in assay [6]; in [7]; at Myosin-14; in [8]; in assay [9]; in assay [10]) was > 30 µM (inactive) each time. Besides, the Kd in assay [11] was > 30 µM (inactive).
For `O=c1sn(-c2cccc3ccccc23)c(=O)n1Cc1ccccc1` [TIDEGLUSIB], the Kd (in assay [1]; on Actin-related protein 2; in assay [2]; in [3]; in [4]; in [5]) was > 30 µM (inactive) in each case. Also, the Kd (in assay [6]; in [7]; on Myosin-14; in assay [8]; in [9]; in assay [10]) was > 30 µM (inactive) each time. The Kd in assay [11] is > 30 µM (inactive).
